Data set [1] addresses 5-hydroxytryptamine receptor 6 (Homo sapiens) (UniProt P50406). The data set is described as follows: Binding affinity to human recombinant 5HT6 receptor expressed in CHO cells co-expressing pCRE-Luc gene assessed as modulation of serotonin-induced intracellular cAMP level after 4 hrs by luciferase based luminescence assay. The class given is cell-based.
Data set [2] addresses 5-hydroxytryptamine receptor 2A (Homo sapiens) (UniProt P28223). The experiment in a line: Inhibition of 5HT2A receptor at 0.5 uM.
Data set [3] addresses T1, 5-hydroxytryptamine receptor 2C (Homo sapiens) (UniProt P28335).
T1 sequence (whole entry): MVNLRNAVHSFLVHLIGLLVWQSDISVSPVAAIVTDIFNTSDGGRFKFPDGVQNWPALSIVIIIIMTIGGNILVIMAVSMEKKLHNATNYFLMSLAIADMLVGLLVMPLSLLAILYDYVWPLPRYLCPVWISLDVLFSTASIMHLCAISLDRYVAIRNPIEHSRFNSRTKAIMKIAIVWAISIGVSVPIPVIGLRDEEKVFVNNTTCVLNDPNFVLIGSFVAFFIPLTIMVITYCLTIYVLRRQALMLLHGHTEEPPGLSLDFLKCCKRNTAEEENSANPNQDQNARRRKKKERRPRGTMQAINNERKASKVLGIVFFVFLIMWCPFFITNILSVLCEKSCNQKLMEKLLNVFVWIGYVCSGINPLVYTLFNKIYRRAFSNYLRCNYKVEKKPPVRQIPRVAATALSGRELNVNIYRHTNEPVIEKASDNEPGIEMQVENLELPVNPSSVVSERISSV
The experiment in a line: Inhibition of 5HT2C receptor at 0.5 uM.

The target of data set [4] is 5-hydroxytryptamine receptor 4 (Homo sapiens) (UniProt Q13639). The experiment in a line: Binding affinity to human recombinant 5HT4 receptor expressed in CHO cells co-expressing pCRE-Luc gene assessed as modulation of serotonin-induced intracellular cAMP level at 0.5 uM after 5 hrs by luciferase based luminescence assay. Format: cell-based.
Data set [5] deals with 5-hydroxytryptamine receptor 7 (Rattus norvegicus) (UniProt P32305). The experiment in a line: Binding affinity to rat 5HT7 receptor expressed in CHO cells co-expressing pCRE-Luc gene assessed as modulation of serotonin-induced intracellular cAMP level at 0.5 uM after 5 hrs by luciferase based luminescence assay. The class given is cell-based.
Data set [6] addresses Histamine H1 receptor (Homo sapiens) (UniProt P35367). The data set is described as follows: Inhibition of histamine H1 receptor at 0.5 uM.
The target of data set [7] is D(2) dopamine receptor (Homo sapiens) (UniProt P14416). The experiment in a line: Inhibition of dopamine D2 receptor at 0.5 uM.
In data set [8] the target is T2, Alpha-1B adrenergic receptor (Homo sapiens) (UniProt P35368).
T2 sequence (whole entry): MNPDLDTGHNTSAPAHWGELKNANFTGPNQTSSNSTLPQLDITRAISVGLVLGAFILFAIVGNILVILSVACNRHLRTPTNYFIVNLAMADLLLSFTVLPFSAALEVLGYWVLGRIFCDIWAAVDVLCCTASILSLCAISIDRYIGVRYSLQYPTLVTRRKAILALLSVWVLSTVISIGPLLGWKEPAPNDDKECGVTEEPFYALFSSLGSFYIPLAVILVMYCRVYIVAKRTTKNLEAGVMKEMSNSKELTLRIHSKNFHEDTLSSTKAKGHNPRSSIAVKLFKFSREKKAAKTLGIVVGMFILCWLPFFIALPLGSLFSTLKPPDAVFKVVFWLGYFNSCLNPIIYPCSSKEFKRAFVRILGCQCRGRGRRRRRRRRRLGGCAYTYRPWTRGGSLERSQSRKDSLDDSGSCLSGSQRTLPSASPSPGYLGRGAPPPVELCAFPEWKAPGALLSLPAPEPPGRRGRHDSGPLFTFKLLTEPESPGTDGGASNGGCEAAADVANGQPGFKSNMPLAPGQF
The experiment in a line: Inhibition of adrenergic alpha1b receptor at 0.5 uM.

Data set [9] deals with T3, Muscarinic acetylcholine receptor M1 (Homo sapiens) (UniProt P11229).
T3 sequence (whole entry): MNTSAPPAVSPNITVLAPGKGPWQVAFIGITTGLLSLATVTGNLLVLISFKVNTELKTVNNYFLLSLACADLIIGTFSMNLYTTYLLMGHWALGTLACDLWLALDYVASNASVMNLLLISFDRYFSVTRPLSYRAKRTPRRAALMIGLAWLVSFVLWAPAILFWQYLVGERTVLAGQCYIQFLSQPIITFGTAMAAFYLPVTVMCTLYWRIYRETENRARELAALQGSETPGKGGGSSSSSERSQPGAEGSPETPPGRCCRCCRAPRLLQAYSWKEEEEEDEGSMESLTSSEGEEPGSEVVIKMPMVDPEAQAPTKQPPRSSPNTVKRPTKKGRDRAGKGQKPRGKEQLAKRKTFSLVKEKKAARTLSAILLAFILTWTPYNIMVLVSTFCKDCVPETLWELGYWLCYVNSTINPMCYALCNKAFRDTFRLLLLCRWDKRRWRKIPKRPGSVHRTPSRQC
The data set is described as follows: Binding affinity to human muscarinic M1 receptor expressed in CHO cells co-expressing pCRE-Luc gene assessed as modulation of acetylcholine-induced intracellular cAMP level at 0.5 uM after 5 hrs by luciferase based luminescence assay. The class given is cell-based. (Changes in cAMP serve as a functional read-out for many G protein-coupled receptors.)

For data set [10], the target named is Sodium-dependent serotonin transporter (Homo sapiens) (UniProt P31645). The data set is described as follows: Inhibition of SERT at 0.5 uM.
In data set [11] the target is Sodium-dependent dopamine transporter (Homo sapiens) (UniProt Q01959). The experiment in a line: Inhibition of DAT at 0.5 uM.
For data set [12], the target named is Sodium-dependent noradrenaline transporter (Homo sapiens) (UniProt P23975). The experiment in a line: Inhibition of NET at 0.5 uM.
Data set [13] in a line: Metabolic stability in human liver microsomes assessed as drug metabolized level after 30 mins. Format: ADME, Microsome. To be noted: read-out: Activity.
Data set [14] can be described thus: Metabolic stability in rat liver microsomes assessed as drug metabolized level after 30 mins. The class given is ADME, Microsome. As to conditions: read-out: Activity. A general note: Microsomes from liver hold many membrane-bound enzymes, among them those of drug oxidation.
In data set [15] the target is Cytochrome P450 2D6 (Homo sapiens, UniProt P10635). The data set is described as follows: Inhibition of CYP2D6. The class given is ADME.
Data set [16] deals with Cytochrome P450 3A4 (Homo sapiens, UniProt P08684). The experiment in a line: Inhibition of CYP3A4. Format: ADME.
Data set [17] is described as follows: Cmax in Wistar rat at 10 mg/kg, po. Format: ADME, organism-based. On the set-up: dose 10 mg/kg, route oral. To be noted: in vivo.
Data set [18] is described as follows: Cmax in Wistar rat at 10 mg/kg, iv. The class given is ADME, organism-based. On the set-up: dose 10 mg/kg, route intravenous. As to conditions: in vivo.
The nature of data set [19]: AUCt in Wistar rat at 10 mg/kg, po. The class given is ADME, organism-based. On the set-up: dose 10 mg/kg, route oral. To be noted: plasma.
Data set [20] can be described thus: AUCt in Wistar rat at 10 mg/kg, iv. The class given is ADME, organism-based. On the set-up: dose 10 mg/kg, route intravenous. As to conditions: plasma.
Data set [21] is described as follows: Half life in Wistar rat at 10 mg/kg, po. Format: ADME, organism-based. On the set-up: dose 10 mg/kg, route oral. To be noted: in vivo.
Data set [22] is described as follows: Half life in Wistar rat at 10 mg/kg, iv. The class given is ADME, organism-based. On the set-up: dose 10 mg/kg, route intravenous. As to conditions: in vivo.
For data set [23], the system named is Rattus norvegicus. The data set is described as follows: Apparent volume of distribution in Wistar rat at 10 mg/kg, po. Format: ADME, organism-based. On the set-up: dose 10 mg/kg, route oral. As to conditions: in vivo.
Data set [24] is described as follows: Apparent volume of distribution in Wistar rat at 10 mg/kg, iv. Format: ADME, organism-based. On the set-up: dose 10 mg/kg, route intravenous. To be noted: in vivo, read-out: Vz.
Data set [25] can be described thus: Clearance in Wistar rat at 10 mg/kg, po. The class given is ADME, organism-based. On the set-up: dose 10 mg/kg, route oral. As to conditions: in vivo.
The nature of data set [26]: Clearance in Wistar rat at 10 mg/kg, iv. Format: ADME, organism-based. On the set-up: dose 10 mg/kg, route intravenous. As to conditions: in vivo.
Data set [27] can be described thus: Oral bioavailability in Wistar rat at 10 mg/kg. Format: ADME, organism-based. To be noted: in vivo.
A short description of data set [28]: Ratio of drug level in brain to plasma in Wistar rat at 1 mg/kg, iv after 6 hrs. Format: ADME, organism-based. On the set-up: dose 1 mg/kg, route intravenous.
Data set [29] has as its system Rattus norvegicus. The experiment in a line: Cognitive enhancing effect in rat at 10 mg/kg, po after 60 mins by novel object recognition test. Format: functional, organism-based. On the set-up: dose 10 mg/kg.
The test system of data set [30] is Rattus norvegicus. The experiment in a line: Cognitive enhancing effect against scopolamine-induced memory deficit in rat at 10 mg/kg, po by morris water maze test. The class given is functional, organism-based. On the set-up: dose 10 mg/kg.

Active and inactive are the calls of the source. No cut-off for these calls is given here.

From ChEMBL document CHEMBL1806380, “Rigidized 1-aryl sulfonyl tryptamines: synthesis and pharmacological evaluation as 5-HT6 receptor ligands” (Bioorg Med Chem Lett, 2011) come the findings set out here.

The inhibition is the change of the read-out against control, counted positive when it falls. By IC50 is commonly meant the concentration that inhibits the measured activity by half. What is called Cmax is the highest concentration seen after dosing. By AUC(0-t) is commonly meant exposure summed from dosing to a finite time, without extrapolation to infinity. One may read the half-life as how long it takes for the measured level to halve. The CL/F is clearance divided by bioavailability, as obtained after extravascular dosing. What is called clearance is the volume of plasma or blood freed of the substance per unit of time. Broadly, the bioavailability is dose-corrected exposure relative to a reference, in per cent. What is called Kp is the ratio of the level in a tissue or fluid to that in plasma or blood.

Chain of Sodium-dependent dopamine transporter (Homo sapiens) (Q01959 whole entry): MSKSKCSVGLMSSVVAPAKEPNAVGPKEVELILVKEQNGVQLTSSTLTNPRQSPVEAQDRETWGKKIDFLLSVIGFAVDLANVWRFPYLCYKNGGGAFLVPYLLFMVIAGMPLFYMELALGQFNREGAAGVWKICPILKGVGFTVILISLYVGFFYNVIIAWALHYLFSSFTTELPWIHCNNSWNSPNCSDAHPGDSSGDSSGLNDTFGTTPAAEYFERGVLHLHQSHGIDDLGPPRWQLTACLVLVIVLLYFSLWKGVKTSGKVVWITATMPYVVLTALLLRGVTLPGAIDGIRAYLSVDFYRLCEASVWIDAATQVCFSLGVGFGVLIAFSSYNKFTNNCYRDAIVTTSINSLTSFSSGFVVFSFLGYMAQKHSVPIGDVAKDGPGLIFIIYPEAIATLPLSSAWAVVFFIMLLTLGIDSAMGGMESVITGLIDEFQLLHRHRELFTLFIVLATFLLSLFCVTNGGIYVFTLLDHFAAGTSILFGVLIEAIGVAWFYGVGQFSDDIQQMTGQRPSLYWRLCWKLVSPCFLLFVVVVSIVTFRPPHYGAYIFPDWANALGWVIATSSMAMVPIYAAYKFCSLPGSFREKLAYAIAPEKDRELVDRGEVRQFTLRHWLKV
Chain of Sodium-dependent serotonin transporter (Homo sapiens) (P31645 whole entry, looked up): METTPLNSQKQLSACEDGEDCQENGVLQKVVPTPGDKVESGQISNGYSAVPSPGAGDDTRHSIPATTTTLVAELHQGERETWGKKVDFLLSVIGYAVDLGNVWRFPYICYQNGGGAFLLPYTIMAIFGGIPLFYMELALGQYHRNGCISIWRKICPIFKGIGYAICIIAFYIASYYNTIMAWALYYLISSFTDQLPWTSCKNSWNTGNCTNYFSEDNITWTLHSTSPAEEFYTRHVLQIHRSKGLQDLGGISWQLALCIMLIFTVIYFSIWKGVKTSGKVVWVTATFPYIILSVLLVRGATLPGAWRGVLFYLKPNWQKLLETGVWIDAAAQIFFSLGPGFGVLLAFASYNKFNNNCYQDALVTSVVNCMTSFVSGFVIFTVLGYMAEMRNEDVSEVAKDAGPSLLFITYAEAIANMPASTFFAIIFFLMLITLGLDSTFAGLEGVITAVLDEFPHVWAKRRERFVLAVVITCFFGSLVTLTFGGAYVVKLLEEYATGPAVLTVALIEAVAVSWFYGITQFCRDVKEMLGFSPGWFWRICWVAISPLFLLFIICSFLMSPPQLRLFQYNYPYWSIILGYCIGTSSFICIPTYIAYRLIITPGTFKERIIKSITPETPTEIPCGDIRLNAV
Chain of 5-hydroxytryptamine receptor 7 (Rattus norvegicus) (P32305 whole entry): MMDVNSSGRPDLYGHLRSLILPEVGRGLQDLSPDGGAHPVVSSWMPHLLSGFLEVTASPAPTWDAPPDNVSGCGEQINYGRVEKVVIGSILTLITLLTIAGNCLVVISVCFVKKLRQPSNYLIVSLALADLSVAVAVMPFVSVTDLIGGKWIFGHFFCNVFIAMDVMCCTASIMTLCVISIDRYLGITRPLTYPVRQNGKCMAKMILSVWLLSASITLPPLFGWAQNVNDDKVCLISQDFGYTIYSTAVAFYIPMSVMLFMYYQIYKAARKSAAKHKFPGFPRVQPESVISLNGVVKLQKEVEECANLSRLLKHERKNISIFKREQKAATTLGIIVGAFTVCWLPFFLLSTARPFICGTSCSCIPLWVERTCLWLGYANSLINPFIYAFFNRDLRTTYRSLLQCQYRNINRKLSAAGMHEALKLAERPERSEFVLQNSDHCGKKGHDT
Chain of 5-hydroxytryptamine receptor 6 (Homo sapiens) (P50406 whole entry): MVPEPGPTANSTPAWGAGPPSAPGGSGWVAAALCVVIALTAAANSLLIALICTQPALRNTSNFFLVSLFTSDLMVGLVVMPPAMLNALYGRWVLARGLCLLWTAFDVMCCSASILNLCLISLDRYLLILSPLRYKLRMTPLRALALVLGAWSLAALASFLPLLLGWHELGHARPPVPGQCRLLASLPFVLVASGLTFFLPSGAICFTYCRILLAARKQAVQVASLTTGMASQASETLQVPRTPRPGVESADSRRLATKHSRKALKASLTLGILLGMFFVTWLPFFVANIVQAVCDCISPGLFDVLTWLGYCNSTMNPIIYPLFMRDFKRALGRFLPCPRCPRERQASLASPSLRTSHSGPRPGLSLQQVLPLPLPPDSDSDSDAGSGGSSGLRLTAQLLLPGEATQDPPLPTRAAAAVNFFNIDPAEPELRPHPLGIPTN
Chain of Sodium-dependent noradrenaline transporter (Homo sapiens) (P23975 whole entry): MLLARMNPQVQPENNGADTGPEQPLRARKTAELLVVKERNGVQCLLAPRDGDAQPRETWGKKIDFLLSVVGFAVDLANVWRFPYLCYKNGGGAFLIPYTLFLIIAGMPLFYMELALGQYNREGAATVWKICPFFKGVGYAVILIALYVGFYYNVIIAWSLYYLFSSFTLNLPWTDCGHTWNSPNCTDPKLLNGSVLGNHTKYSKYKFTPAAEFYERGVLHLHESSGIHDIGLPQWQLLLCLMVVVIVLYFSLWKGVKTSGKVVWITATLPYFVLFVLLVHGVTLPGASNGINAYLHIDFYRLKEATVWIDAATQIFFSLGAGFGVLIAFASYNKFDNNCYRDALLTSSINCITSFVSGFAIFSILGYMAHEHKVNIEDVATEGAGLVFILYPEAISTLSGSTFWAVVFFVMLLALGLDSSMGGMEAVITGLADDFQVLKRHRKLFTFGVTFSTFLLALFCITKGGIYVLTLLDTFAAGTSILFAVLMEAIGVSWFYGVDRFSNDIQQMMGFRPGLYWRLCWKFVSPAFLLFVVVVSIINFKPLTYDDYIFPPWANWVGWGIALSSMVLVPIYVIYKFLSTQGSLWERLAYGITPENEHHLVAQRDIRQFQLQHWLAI
Chain of 5-hydroxytryptamine receptor 4 (Homo sapiens) (Q13639 whole entry): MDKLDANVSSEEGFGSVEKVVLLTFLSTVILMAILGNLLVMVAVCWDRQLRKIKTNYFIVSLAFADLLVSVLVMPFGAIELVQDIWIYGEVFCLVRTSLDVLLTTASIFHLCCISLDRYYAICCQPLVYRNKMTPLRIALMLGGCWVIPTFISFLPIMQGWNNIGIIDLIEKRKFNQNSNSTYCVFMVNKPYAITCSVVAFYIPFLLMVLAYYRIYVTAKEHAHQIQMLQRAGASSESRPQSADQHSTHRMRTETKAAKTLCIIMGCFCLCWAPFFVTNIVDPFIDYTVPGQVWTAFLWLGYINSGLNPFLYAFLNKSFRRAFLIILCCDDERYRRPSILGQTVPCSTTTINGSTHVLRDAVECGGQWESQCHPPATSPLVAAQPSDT
Chain of Histamine H1 receptor (Homo sapiens) (P35367 whole entry): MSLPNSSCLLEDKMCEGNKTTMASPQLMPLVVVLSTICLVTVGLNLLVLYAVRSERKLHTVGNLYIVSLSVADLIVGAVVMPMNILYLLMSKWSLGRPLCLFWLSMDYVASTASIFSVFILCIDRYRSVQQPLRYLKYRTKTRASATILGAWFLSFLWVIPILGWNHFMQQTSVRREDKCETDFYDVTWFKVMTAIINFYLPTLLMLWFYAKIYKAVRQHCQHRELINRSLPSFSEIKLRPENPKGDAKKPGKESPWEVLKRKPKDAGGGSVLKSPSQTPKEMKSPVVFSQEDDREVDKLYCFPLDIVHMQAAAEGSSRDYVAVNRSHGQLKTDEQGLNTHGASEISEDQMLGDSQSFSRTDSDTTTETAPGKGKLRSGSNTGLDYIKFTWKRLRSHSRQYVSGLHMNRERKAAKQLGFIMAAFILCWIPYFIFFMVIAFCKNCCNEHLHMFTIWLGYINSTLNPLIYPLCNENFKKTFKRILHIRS
Chain of 5-hydroxytryptamine receptor 2A (Homo sapiens) (P28223 whole entry): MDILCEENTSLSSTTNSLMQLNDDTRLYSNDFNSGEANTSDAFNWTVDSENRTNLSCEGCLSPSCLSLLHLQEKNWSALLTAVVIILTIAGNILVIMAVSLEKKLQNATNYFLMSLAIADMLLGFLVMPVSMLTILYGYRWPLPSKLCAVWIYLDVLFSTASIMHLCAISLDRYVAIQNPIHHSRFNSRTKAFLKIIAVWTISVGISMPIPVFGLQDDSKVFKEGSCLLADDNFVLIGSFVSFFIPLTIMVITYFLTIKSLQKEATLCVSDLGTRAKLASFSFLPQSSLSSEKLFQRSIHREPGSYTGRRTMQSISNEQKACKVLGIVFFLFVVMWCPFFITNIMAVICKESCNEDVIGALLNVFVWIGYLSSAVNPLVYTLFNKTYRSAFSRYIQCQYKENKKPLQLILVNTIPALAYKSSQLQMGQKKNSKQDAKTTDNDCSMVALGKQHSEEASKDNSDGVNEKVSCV
Chain of D(2) dopamine receptor (Homo sapiens) (P14416 whole entry): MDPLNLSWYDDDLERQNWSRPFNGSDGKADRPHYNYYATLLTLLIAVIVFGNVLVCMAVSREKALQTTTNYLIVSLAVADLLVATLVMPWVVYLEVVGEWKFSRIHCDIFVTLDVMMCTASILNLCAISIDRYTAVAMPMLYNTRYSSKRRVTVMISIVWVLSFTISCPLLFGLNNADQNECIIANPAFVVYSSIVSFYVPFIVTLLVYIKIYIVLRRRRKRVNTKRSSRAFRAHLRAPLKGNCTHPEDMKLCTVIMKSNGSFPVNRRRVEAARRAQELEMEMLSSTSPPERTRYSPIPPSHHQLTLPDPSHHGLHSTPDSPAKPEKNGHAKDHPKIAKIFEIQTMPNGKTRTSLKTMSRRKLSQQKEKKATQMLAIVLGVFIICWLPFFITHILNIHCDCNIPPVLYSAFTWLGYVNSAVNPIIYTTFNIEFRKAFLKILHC

With `COc1ccc2c(c1)c(C1=C(Cl)CN(C)C1)cn2S(=O)(=O)c1ccccc1`, the Kb in [1] turned out to be 0.0001 µM. The inhibition in data set [2], in data set [3], in data set [4], in data set [5], in data set [6] and in [7] was less than 50% in each case. The inhibition in data set [8], in [9], in [10], in data set [11] and in data set [12] was less than 50% each time. Also, the metabolised at 0.5 h stood at 97% in [13] and 96% in data set [14].

Turning to `CN1CC(Cl)=C(c2cn(S(=O)(=O)c3ccccc3)c3ccccc23)C1`, the Kb in data set [1] was 0.0001 µM. In addition, the inhibition in [2], in data set [3], in data set [4], in data set [5], in [6] and in data set [7] was less than 50% each time. The inhibition in data set [8], in [9], in data set [10], in data set [11] and in [12] was less than 50% each time. Further, the metabolised at 0.5 h was 43% in [13] and 70% in [14]. The half-inhibitory concentration (IC50) was 21.1 µM in data set [15] and 14.7 µM in data set [16]. The Cmax came to 105 ng/mL in [17] and 2690 ng/mL in data set [18]. Further, the AUC(0-t) amounted to 268 ng·h/mL in [19] and 2320 ng·h/mL in data set [20]. For the same compound, the figures for the half-life in data set [21] and in [22] were 3.75 h and 5.48 h, respectively. Besides, the Vz in data set [23] was 196.287 L/kg. Besides, in [24], the Vd was found to be 34.9 L/kg. Also, the CL/F in [25] was 585 mL/min/kg. Besides, in data set [26], the clearance came out at 72.5 mL/min/kg. This compound gave a bioavailability in data set [27] of 12%. Besides, in data set [28], the Kp at 6 h came out at 1.79. Further, the outcome in data set [29] and in data set [30] was Active.
